Source: patent US5795885A, “Method of inhibiting profileration of cells by administering an aminosterol compound” (priority 1995, dated 1998)
In brackets after ≈: the same amount, converted by molar mass.

Tests used:
[1] = tested on: stage 59-60 Xenopus tadpoles; conditions: tadpole assay
[2] = tested on: chick embryo vitelline capillaries; test: chick embryo vitelline capillary regression assay; format: in vivo; design: key to vitelline capillary regression: +: Vascular reactivity; 0: No vascular reactivity; +/-: Equivocal reactivity; conditions: for vitelline capillary regression: 60 minutes
Description: Using the chick embryo vitelline capillaries assay, compounds were tested for their ability to induce capillary regression. Each compound was applied in 0.1 ml of 15% Ficol 400 and PBS onto the embryo, and vascular regression was assessed after 60 minutes.
The 3-day chick embryo consists of an embryonic disc from which numerous vessels emerge and return, forming a "figure 8"-shaped structure--the embryo in the center with vascular loops extending outward over both poles. […] Following a lag period of around 15 minutes, the constriction of continuity between capillary and secondary vessels, generally on the "venous" side, was observed. Continued pulsatile blood flow progressed, resulting in a "swelling" of the blind tube, followed by a pinching off of the remaining connection and formation of an enclosed vascular sac resembling a "blood island." This process progressed until only the largest vessels remained intact.

P. aerug = test: antibiotic activity (MIC); format: cell-based
[3] = tested on: Human ovarian carcinoma SKOV3; test: growth inhibition in vitro (Baker et al.); format: cell-based
Description: As set forth in Table 7 below, all malignant tumors evaluated in tissue culture, endothelial cells and vascular smooth muscle cells were sensitive to inhibition. Thus, compound 1436 has application in the control of growth factor dependent proliferation of many types of tissue.
Using the assay described above, the anticancer effects of compound 1437 against several cancer lines was assessed.

[4] = tested on: PHA-stimulated human lymphocytes; test: inhibition of mitogen (PHA)-stimulated growth of human T-cells; format: cell-based; conditions: Homo sapiens, Lymphocyte; 10 μg/ml; read-out: inhibition of PHA-stimulated human lymphocytes (% control)
Description: Results are tabulated below.

fasting blood glucose = fasting blood glucose in mice; format: in vivo, Male CD-1 mice; conditions: intravenous
Description: To study the effect of steroid administrator or the NHE responsible for secretion of insulin, several of the aminosterols from shark liver were administered to fasting mice. Male CD-1 mice were assigned to one of four treatment groups. Whole blood glucose was tested using glucometer (Lifescan Glucometer II and One Touch test strips). Statistical analysis was via one-way analysis of variance (ANOVA) followed by subsequent Bonferonni's t-test.

human melanoma = human melanoma growth time course and cell death (Baker et al.); format: cell-based
NHE1β = conditions: cited from earlier work
[5] = tested on: L1210 lymphoblastic leukemia; test: mouse model of L1210 leukemia; format: in vivo, C57B mice; conditions: by day 28

C[C@H](CCC(=O)O)[C@H]1CC[C@H]2[C@@H]3[C@H](O)C[C@@H]4C[C@H](NCCN)CC[C@]4(C)[C@H]3CC[C@]12C [Compound 414]
tadpole response similar to Fraction 1 [1]: pharmacologic activity similar to Fraction 1
vitelline capillary regression ([2]; 1 μg applied): 0

CC(C)CCCC(C)[C@H]1CCC2C3C(CC[C@@]21C)[C@@]1(C)CC[C@@H](NCCCNCCCCN)C[C@@H]1C[C@H]3O (some centres unmarked)
MIC (P. aerug): 64 µg/mL (≈ 120 µM)

CC(CCC(=O)O)[C@H]1CCC2C3C(CC[C@@]21C)[C@@]1(C)CC[C@@H](NCCN)C[C@H]1C[C@H]3O (some centres unmarked)
MIC (P. aerug): 64 µg/mL (≈ 147 µM)

CC(C)CCC[C@@H](C)[C@H]1CC[C@H]2[C@@H]3CC[C@H]4C[C@@H](NCCCCN)CC[C@]4(C)[C@H]3CC[C@]12C
MIC (P. aerug): > 256 µg/mL

COC(=O)CC[C@@H](C)[C@H]1CC[C@H]2[C@@H]3[C@H](O)C[C@@H]4C[C@H](NCCN)CC[C@]4(C)[C@H]3CC[C@]12C [Compound 410]
tadpole response similar to compound 1437 [1]: functionally similar to compound 1437
vitelline capillary regression ([2]; 0.001 μg applied): 0
vitelline capillary regression ([2]; 0.01 μg applied): +/-
vitelline capillary regression ([2]; 0.1 μg applied): +/-
vitelline capillary regression ([2]; 1 μg applied): +

CC(CCC(=O)O)[C@H]1CCC2C3C[C@@H](O)[C@H]4C[C@@H](NCCN)CC[C@]4(C)C3CC[C@@]21C (some centres unmarked)
MIC (P. aerug): 128 µg/mL (≈ 294 µM)

CC(CCC(=O)O)[C@H]1CCC2C3CC[C@@H]4C[C@H](NCCN)CC[C@]4(C)C3C[C@H](O)[C@@]21C (some centres unmarked)
MIC (P. aerug): 128 µg/mL (≈ 294 µM)

COC(=O)CCC(C)[C@H]1CCC2C3CC[C@H]4C[C@H](NCCCNCCCCNCCCN)CC[C@]4(C)C3CC[C@@]21C (some centres unmarked) [drawing 74]
MIC (P. aerug): 64 µg/mL (≈ 111 µM)

COC(=O)CCC(C)[C@H]1CCC2C3C[C@@H](O)[C@H]4C[C@@H](NCCN)CC[C@]4(C)C3CC[C@@]21C (some centres unmarked)
MIC (P. aerug): 64 µg/mL (≈ 143 µM)

C[C@H](CCC(=O)O)[C@H]1CC[C@H]2[C@@H]3[C@H](O)C[C@@H]4C[C@@H](NCCCNCCCCNCCCN)CC[C@]4(C)[C@H]3CC[C@]12C [Compound 413]
tadpole response similar to compound 1436 [1]: produce effects like those produced by compound 1436
vitelline capillary regression ([2]; 1 μg applied): 0

COC(=O)CCC(C)[C@H]1CCC2C3C[C@@H](O)[C@H]4C[C@H](NCCCNCCCCNCCCN)CC[C@]4(C)C3CC[C@@]21C (some centres unmarked)
MIC (P. aerug): 128 µg/mL (≈ 217 µM)

CC(C)CCC[C@@H](C)[C@H]1CC[C@H]2[C@@H]3[C@H](O)C[C@H]4C[C@@H](NCCCNCCCCN)CC[C@]4(C)[C@H]3CC[C@]12C [Compound 371]
tadpole response similar to compound 1436 [1]: produce effects like those produced by compound 1436
vitelline capillary regression ([2]; 0.001 μg applied): 0
vitelline capillary regression ([2]; 0.01 μg applied): 0
vitelline capillary regression ([2]; 0.1 μg applied): 0
vitelline capillary regression ([2]; 1 μg applied): +/-
vitelline capillary regression ([2]; 10 μg applied): +

CC(CCC(=O)O)[C@H]1CCC2C3C(CC[C@@]21C)[C@@]1(C)CC[C@H](NCCN)C[C@H]1C[C@H]3O (some centres unmarked)
MIC (P. aerug): 256 µg/mL (≈ 589 µM)

CC(C)C(CO)(CC[C@@H](C)[C@H]1CC[C@H]2[C@@H]3[C@H](O)C[C@H]4C[C@@H](NCCCNCCCCN)CC[C@]4(C)[C@H]3CC[C@]12C)OS(=O)(=O)O (single isomer, unassigned) [Compound 1437]
anticancer activity [3]: found to exhibit anticancer activity
inhibition at 10 µg/mL [4]: 10%
hyperglycemia (fasting blood glucose): caused hyperglycemia in mice

COC(=O)CCC(C)[C@H]1CCC2C3C(CC[C@@]21C)[C@@]1(C)CC[C@H](NCCN)C[C@H]1C[C@H]3O (some centres unmarked)
MIC (P. aerug): 128 µg/mL (≈ 285 µM)

COC(=O)CCC(C)[C@H]1CCC2C3CC[C@@H]4C[C@H](NCCCNCCCCNCCCN)CC[C@]4(C)C3C[C@H](O)[C@@]21C (some centres unmarked)
MIC (P. aerug): 8 µg/mL (≈ 13.5 µM)

CC(C)CCC[C@@H](C)[C@H]1CC[C@H]2[C@@H]3CC[C@H]4C[C@@H](NCCCNCCCCNCCCN)CC[C@]4(C)[C@H]3CC[C@]12C [Compound 353]
tadpole response similar to compound 1436 [1]: produce effects like those produced by compound 1436
vitelline capillary regression ([2]; 1 μg applied): +/-
effect on chick embryo vitelline capillaries (in words) ([2]; in vivo): no effect on the chick embryo capillary bed
apoptotic cell death (human melanoma): apoptotic cell death has been induced
effect on growth of melanoma (time course) (human melanoma; FIG. 17A): most pronounced over 48 hours, with less of an effect noted within the first 12 hours of incubation

COC(=O)CC[C@@H](C)[C@H]1CC[C@H]2[C@@H]3C[C@@H](O)[C@H]4C[C@@H](NCCN)CC[C@]4(C)[C@H]3CC[C@]12C [Compound 432]
tadpole response similar to compound 1437 [1]: functionally similar to compound 1437

CC(CCC(=O)O)[C@H]1CCC2C3C(CC[C@@]21C)[C@@]1(C)CC[C@@H](NCCCNCCCCNCCCN)C[C@H]1C[C@H]3O (some centres unmarked)
MIC (P. aerug): 8 µg/mL (≈ 13.9 µM)

CC(C)CCC[C@@H](C)[C@H]1CC[C@H]2[C@@H]3[C@H](O)C[C@H]4C[C@H](N)CC[C@]4(C)[C@H]3CC[C@]12C [Compound 1363]
tadpole response similar to Fraction 1 [1]: pharmacologic activity similar to Fraction 1

COC(=O)CCC(C)[C@H]1CCC2C3C(CC[C@@]21C)[C@@]1(C)CC[C@H](NCCCNCCCCNCCCN)C[C@H]1C[C@H]3O (some centres unmarked)
MIC (P. aerug): 64 µg/mL (≈ 108 µM)

CC(C)CCCC(C)[C@H]1CCC2C3C(CC[C@@]21C)[C@@]1(C)CC[C@H](N)C[C@@H]1C[C@H]3O (some centres unmarked)
MIC (P. aerug): > 256 µg/mL

CC(COS(=O)(=O)O)C(=O)CC[C@@H](C)[C@H]1CC[C@H]2[C@@H]3[C@H](O)C[C@H]4C[C@@H](NCCCNCCCCN)CC[C@]4(C)[C@H]3CC[C@]12C (some centres unmarked)
MIC (P. aerug): 128 µg/mL (≈ 199 µM)

N=C(N)NC(=O)c1nc(Cl)c(N)nc1N [Amiloride, amiloride]
inhibition of NHE1β (NHE1β): inhibited by high concentrations

CC(C)CCC[C@@H](C)[C@H]1CC[C@H]2[C@@H]3CC[C@H]4C[C@H](NCCCCN)CC[C@]4(C)[C@H]3CC[C@]12C
MIC (P. aerug): > 256 µg/mL

C[C@H](CCC(=O)O)[C@H]1CC[C@H]2[C@@H]3C[C@@H](O)[C@H]4C[C@@H](NCCN)CC[C@]4(C)[C@H]3CC[C@]12C [Compound 433]
tadpole response similar to compound 1437 [1]: functionally similar to compound 1437

C[C@H](CCC(=O)O)[C@H]1CC[C@H]2[C@@H]3[C@H](O)C[C@@H]4C[C@H](NCCCNCCCCNCCCN)CC[C@]4(C)[C@H]3CC[C@]12C [Compound 412]
tadpole response similar to FX 3 [1]: exhibiting pharmacologic activity similar to that seen for FX 3
vitelline capillary regression ([2]; 0.001 μg applied): 0
vitelline capillary regression ([2]; 0.01 μg applied): 0
vitelline capillary regression ([2]; 0.1 μg applied): 0
vitelline capillary regression ([2]; 1 μg applied): +

COC(=O)CCC(C)[C@H]1CCC2C3CC[C@@H]4C[C@H](NCCN)CC[C@]4(C)C3C[C@H](O)[C@@]21C (some centres unmarked)
MIC (P. aerug): 16 to 32 µg/mL (≈ 35.7 to 71.3 µM)

CC(CCC(=O)O)[C@H]1CCC2C3CC[C@@H]4C[C@H](NCCCNCCCCNCCCN)CC[C@]4(C)C3C[C@H](O)[C@@]21C (some centres unmarked)
MIC (P. aerug): 4 µg/mL (≈ 6.93 µM)

COC(=O)CC[C@@H](C)[C@H]1CC[C@H]2[C@@H]3C[C@@H](O)[C@H]4C[C@H](NCCN)CC[C@]4(C)[C@H]3CC[C@]12C [Compound 431]
tadpole response similar to compound 1437 [1]: functionally similar to compound 1437

COC(=O)CC[C@@H](C)[C@H]1CC[C@H]2[C@@H]3[C@H](O)C[C@@H]4C[C@@H](NCCN)CC[C@]4(C)[C@H]3CC[C@]12C [Compound 409]
tadpole response similar to compound 1437 [1]: functionally similar to compound 1437
vitelline capillary regression ([2]; 1 μg applied): 0

COC(=O)CCC(C)[C@H]1CCC2C3CC[C@H]4C[C@@H](NCCCNCCCCNCCCN)CC[C@]4(C)C3CC[C@@]21C (some centres unmarked)
MIC (P. aerug): 64 µg/mL (≈ 111 µM)

CC(CCC(=O)O)[C@H]1CCC2C3C[C@@H](O)[C@H]4C[C@@H](NCCCNCCCCNCCCN)CC[C@]4(C)C3CC[C@@]21C (some centres unmarked)
MIC (P. aerug): 8 µg/mL (≈ 13.9 µM)

CC(C)CCCC(C)[C@H]1CCC2C3C(CC[C@@]21C)[C@@]1(C)CC[C@H](NCCCNCCCCN)C[C@@H]1C[C@H]3O (some centres unmarked)
MIC (P. aerug): 64 µg/mL (≈ 120 µM)

COC(=O)CC[C@@H](C)[C@H]1CC[C@H]2[C@@H]3CC[C@H]4C[C@H](NCCCNCCCCNCCCN)CC[C@]4(C)[C@H]3CC[C@]12C [Compound 458]
tadpole response similar to FX 3 [1]: exhibiting pharmacologic activity similar to that seen for FX 3

COC(=O)CCC(C)[C@H]1CCC2C3C[C@@H](O)[C@H]4C[C@@H](NCCCNCCCCNCCCN)CC[C@]4(C)C3CC[C@@]21C (some centres unmarked)
MIC (P. aerug): 32 µg/mL (≈ 54.2 µM)

N.N.[Cl][Pt][Cl] [Cisplatin, cisplatin, reference compound]
anemia [5]: profound anemia
